Measurements published in patent US5998488A, “Ophthalmic composition” (Lion Corporation, priority 1994, dated 1999).

System: E. coli, P. aeru, S. aureus, A. nigar, Candida
Experiment: Antimicrobial test (preservative effectiveness test, USP), microorganism type not specified
Format: cell-based
Protocol: Using bacteria Escherichia coli (E. coli), Pseudomonas aeruginosa (P. aeru), and Stapyrococcus aureus (S. aureus) and fungi Aspergillus nigar (A. nigar) and Candida albicans (Candida) as infectious microorganisms, a preservative effectiveness test was carried out according to the Pharmacopoeia of the United States.
++: microorganisms died within 5 days
+: microorganisms died in 6-10 days
-:microorganisms died in 11-15 days or over 15 days
Solutions were prepared in accordance with the formulation shown in Experiment 1 in a conventional manner as used in the preparation of eye drops while the amount of disodium ethylenediaminetetraacetate (EDTA-2Na) blended was in the range of 0.002 to 0.3%. The solutions were subject to the antimicrobial test of Experiment 3 and evaluated for antimicrobial activity according to the same criterion as above.
Solutions of the following formulation were prepared in a conventional manner as used in the preparation of eye drops.
The solutions were subject to the antimicrobial test of Experiment 3 and evaluated for antimicrobial activity according to the same criterion as above.
Solutions of the formulation shown in Table 7 were prepared to a total amount of 1,000 g in a conventional manner as used in the preparation of eye drops. […] The ophthalmic solutions were subject to the same tests as in Experiments 1 and 3. In the test of Experiment 3, the ophthalmic solutions were evaluated for antimicrobial activity according to the same criterion as before.

Compound: O=C([O-])CN(CCN(CC(=O)O)CC(=O)O)CC(=O)[O-].[Na+].[Na+] [EDTA-2Na, disodium ethylenediaminetetraacetate]
- Effect on lowering of antimicrobial activity by α-cyclodextrin (in words) (0.01 to 1.0% of α-cyclodextrin, remarkable at EDTA-2Na at least 0.006%): prevents a lowering of antimicrobial activity
- Antimicrobial activity (EDTA-2Na 0.002%, α-cyclodextrin 0.01%): + (microorganisms died in 6-10 days)
- Antimicrobial activity (EDTA-2Na 0.002%, α-cyclodextrin 0.03%): - (microorganisms died in 11-15 days or over 15 days)
- Antimicrobial activity (EDTA-2Na 0.002%, α-cyclodextrin 0.05%): - (microorganisms died in 11-15 days or over 15 days)
- Antimicrobial activity (EDTA-2Na 0.002%, α-cyclodextrin 0.1%): - (microorganisms died in 11-15 days or over 15 days)
- Antimicrobial activity (EDTA-2Na 0.002%, α-cyclodextrin 0.3%): - (microorganisms died in 11-15 days or over 15 days)
- Antimicrobial activity (EDTA-2Na 0.002%, α-cyclodextrin 0.5%): - (microorganisms died in 11-15 days or over 15 days)
- Antimicrobial activity (EDTA-2Na 0.002%, α-cyclodextrin 1.0%): - (microorganisms died in 11-15 days or over 15 days)
- Antimicrobial activity (EDTA-2Na 0.004%, α-cyclodextrin 0.01%): + (microorganisms died in 6-10 days)
- Antimicrobial activity (EDTA-2Na 0.004%, α-cyclodextrin 0.03%): - (microorganisms died in 11-15 days or over 15 days)
- Antimicrobial activity (EDTA-2Na 0.004%, α-cyclodextrin 0.05%): - (microorganisms died in 11-15 days or over 15 days)
- Antimicrobial activity (EDTA-2Na 0.004%, α-cyclodextrin 0.1%): - (microorganisms died in 11-15 days or over 15 days)
- Antimicrobial activity (EDTA-2Na 0.004%, α-cyclodextrin 0.3%): - (microorganisms died in 11-15 days or over 15 days)
- Antimicrobial activity (EDTA-2Na 0.004%, α-cyclodextrin 0.5%): - (microorganisms died in 11-15 days or over 15 days)
- Antimicrobial activity (EDTA-2Na 0.004%, α-cyclodextrin 1.0%): - (microorganisms died in 11-15 days or over 15 days)
- Antimicrobial activity (EDTA-2Na 0.006%, α-cyclodextrin 0.01%): + (microorganisms died in 6-10 days)
- Antimicrobial activity (EDTA-2Na 0.006%, α-cyclodextrin 0.03%): + (microorganisms died in 6-10 days)
- Antimicrobial activity (EDTA-2Na 0.006%, α-cyclodextrin 0.05%): + (microorganisms died in 6-10 days)
- Antimicrobial activity (EDTA-2Na 0.006%, α-cyclodextrin 0.1%): + (microorganisms died in 6-10 days)
- Antimicrobial activity (EDTA-2Na 0.006%, α-cyclodextrin 0.3%): + (microorganisms died in 6-10 days)
- Antimicrobial activity (EDTA-2Na 0.006%, α-cyclodextrin 0.5%): + (microorganisms died in 6-10 days)
- Antimicrobial activity (EDTA-2Na 0.006%, α-cyclodextrin 1.0%): + (microorganisms died in 6-10 days)
- Antimicrobial activity (EDTA-2Na 0.01%, α-cyclodextrin 0.01%): + (microorganisms died in 6-10 days)
- Antimicrobial activity (EDTA-2Na 0.01%, α-cyclodextrin 0.03%): + (microorganisms died in 6-10 days)
- Antimicrobial activity (EDTA-2Na 0.01%, α-cyclodextrin 0.05%): + (microorganisms died in 6-10 days)
- Antimicrobial activity (EDTA-2Na 0.01%, α-cyclodextrin 0.1%): + (microorganisms died in 6-10 days)
- Antimicrobial activity (EDTA-2Na 0.01%, α-cyclodextrin 0.3%): + (microorganisms died in 6-10 days)
- Antimicrobial activity (EDTA-2Na 0.01%, α-cyclodextrin 0.5%): + (microorganisms died in 6-10 days)
- Antimicrobial activity (EDTA-2Na 0.01%, α-cyclodextrin 1.0%): + (microorganisms died in 6-10 days)
- Antimicrobial activity (EDTA-2Na 0.05%, α-cyclodextrin 0.01%): + (microorganisms died in 6-10 days)
- Antimicrobial activity (EDTA-2Na 0.05%, α-cyclodextrin 0.03%): + (microorganisms died in 6-10 days)
- Antimicrobial activity (EDTA-2Na 0.05%, α-cyclodextrin 0.05%): + (microorganisms died in 6-10 days)
- Antimicrobial activity (EDTA-2Na 0.05%, α-cyclodextrin 0.1%): + (microorganisms died in 6-10 days)
- Antimicrobial activity (EDTA-2Na 0.05%, α-cyclodextrin 0.3%): + (microorganisms died in 6-10 days)
- Antimicrobial activity (EDTA-2Na 0.05%, α-cyclodextrin 0.5%): + (microorganisms died in 6-10 days)
- Antimicrobial activity (EDTA-2Na 0.05%, α-cyclodextrin 1.0%): + (microorganisms died in 6-10 days)
- Antimicrobial activity (EDTA-2Na 0.1%, α-cyclodextrin 0.01%): + (microorganisms died in 6-10 days)
- Antimicrobial activity (EDTA-2Na 0.1%, α-cyclodextrin 0.03%): + (microorganisms died in 6-10 days)
- Antimicrobial activity (EDTA-2Na 0.1%, α-cyclodextrin 0.05%): + (microorganisms died in 6-10 days)
- Antimicrobial activity (EDTA-2Na 0.1%, α-cyclodextrin 0.1%): + (microorganisms died in 6-10 days)
- Antimicrobial activity (EDTA-2Na 0.1%, α-cyclodextrin 0.3%): + (microorganisms died in 6-10 days)
- Antimicrobial activity (EDTA-2Na 0.1%, α-cyclodextrin 0.5%): + (microorganisms died in 6-10 days)
- Antimicrobial activity (EDTA-2Na 0.1%, α-cyclodextrin 1.0%): + (microorganisms died in 6-10 days)
- Antimicrobial activity (EDTA-2Na 0.3%, α-cyclodextrin 0.01%): + (microorganisms died in 6-10 days)
- Antimicrobial activity (EDTA-2Na 0.3%, α-cyclodextrin 0.03%): + (microorganisms died in 6-10 days)
- Antimicrobial activity (EDTA-2Na 0.3%, α-cyclodextrin 0.05%): + (microorganisms died in 6-10 days)
- Antimicrobial activity (EDTA-2Na 0.3%, α-cyclodextrin 0.1%): + (microorganisms died in 6-10 days)
- Antimicrobial activity (EDTA-2Na 0.3%, α-cyclodextrin 0.3%): + (microorganisms died in 6-10 days)
- Antimicrobial activity (EDTA-2Na 0.3%, α-cyclodextrin 0.5%): + (microorganisms died in 6-10 days)
- Antimicrobial activity (EDTA-2Na 0.3%, α-cyclodextrin 1.0%): + (microorganisms died in 6-10 days)
